These are literature values, as cited in patent publication US20260373079A1, “USE OF LONG-ACTING FLUTICASONE PROPIONATE INJECTABLE SUSPENSIONS FOR TREATING AND PREVENTING INFLAMMATIONS OF THE GASTROINTESTINAL TRACT” (EUPRAXIA PHARMACEUTICALS INC., priority 2022, published 2026).

For data set [1] the following is noted: for first pass metabolism, relative to fluticasone: in words.
The conditions of data set [2]: treatment of EoE; subcutaneous; weekly dosing recommended.
The conditions of data set [3]: EoE patients.

Regarding `C[C@H]1C[C@H]2[C@@H]3CCC4=CC(=O)C=C[C@]4(C)[C@@]3(Cl)[C@@H](O)C[C@]2(C)[C@@]1(O)C(=O)CO` [beclomethasone], the “first pass metabolism, relative to fluticasone” value in data set [1] is on record as “substantially lower”.
On to `CCC(=O)O[C@]1(C(=O)SCF)[C@H](C)C[C@H]2[C@@H]3C[C@H](F)C4=CC(=O)C=C[C@]4(C)[C@@]3(F)[C@@H](O)C[C@@]21C` [fluticasone], for which the first-pass metabolism in data set [1] (by the liver) is given as ~ 99%.
On to `C[C@]12C=CC(=O)C=C1CC[C@H]1[C@@H]3C[C@@H](O)[C@](O)(C(=O)CO)[C@@]3(C)C[C@H](O)[C@@]12F` [triamcinolone], for which the “first pass metabolism, relative to fluticasone” value in data set [1] is given as “substantially lower”.
Turning to “Dupixent: a monoclonal antibody that is administered subcutaneously”, in data set [2], the effective in patients is reported as 60 % of patients. Moreover, in data set [3], the “upper respiratory tract infections” value is recorded as 18 % of patients.
